The record followed here is US8623869B2, “Compounds useful as inhibitors of ATR kinase” (Vertex Pharmaceuticals Incorporated, priority 2010, dated 2014).

The assay has as its target T1, full-length ATR (Homo sapiens, UniProt Q13535).
T1 construct: Assays were carried out at 25° C. in the presence of 5 nM full-length ATR
The assay can be described thus: ATR Inhibition Assay (radioactive-phosphate incorporation). Conditions: Ki(app); 5 nM full-length ATR, 10 μM ATP, 800 μM target peptide, 25° C. The class given is biochemical. As to the method:
Compounds were screened for their ability to inhibit ATR kinase using a radioactive-phosphate incorporation assay. Assays were carried out in a mixture of 50 mM Tris/HCl (pH 7.5), 10 mM MgCl2 and 1 mM DTT. Final substrate concentrations were 10 μM [γ-33P]ATP (3mCi 33P ATP/mmol ATP, Perkin Elmer) and 800 μM target peptide (ASELPASQPQPFSAKKK).
Assays were carried out at 25° C. in the presence of 5 nM full-length ATR. An assay stock buffer solution was prepared containing all of the reagents listed above, with the exception of ATP and the test compound of interest. 13.5 μL of the stock solution was placed in a 96 well plate followed by addition of 2 μL of DMSO stock containing serial dilutions of the test compound (typically starting from a final concentration of 15 μM with 3-fold serial dilutions) in duplicate (final DMSO concentration 7%). The plate was pre-incubated for 10 minutes at 25° C. and the reaction initiated by addition of 15 μL [γ-33P]ATP (final concentration 10 μM).
The reaction was stopped after […] by the addition of 30 μL 0.1M phosphoric acid containing 2 mM ATP. A multiscreen phosphocellulose filter 96-well plate (Millipore, Cat no. MAPHN0B50) was pretreated with 100 μL 0.2M phosphoric acid prior to the addition of 45 μL of the stopped assay mixture. The plate was washed with 5×200 μL 0.2M phosphoric acid. After drying, 100 μL Optiphase ‘SuperMix’ liquid scintillation cocktail (Perkin Elmer) was added to the well prior to scintillation counting (1450 Microbeta Liquid Scintillation Counter, Wallac).
After removing mean background values for all of the data points, Ki(app) data were calculated from non-linear regression analysis of the initial rate data using the Prism software package (GraphPad Prism version 3.0cx for Macintosh, GraphPad Software, San Diego Calif., USA).

Each structure is given as a SMILES string. Where only a bound is given, the exact number is not on record here.

T1 sequence (Q13535 whole entry): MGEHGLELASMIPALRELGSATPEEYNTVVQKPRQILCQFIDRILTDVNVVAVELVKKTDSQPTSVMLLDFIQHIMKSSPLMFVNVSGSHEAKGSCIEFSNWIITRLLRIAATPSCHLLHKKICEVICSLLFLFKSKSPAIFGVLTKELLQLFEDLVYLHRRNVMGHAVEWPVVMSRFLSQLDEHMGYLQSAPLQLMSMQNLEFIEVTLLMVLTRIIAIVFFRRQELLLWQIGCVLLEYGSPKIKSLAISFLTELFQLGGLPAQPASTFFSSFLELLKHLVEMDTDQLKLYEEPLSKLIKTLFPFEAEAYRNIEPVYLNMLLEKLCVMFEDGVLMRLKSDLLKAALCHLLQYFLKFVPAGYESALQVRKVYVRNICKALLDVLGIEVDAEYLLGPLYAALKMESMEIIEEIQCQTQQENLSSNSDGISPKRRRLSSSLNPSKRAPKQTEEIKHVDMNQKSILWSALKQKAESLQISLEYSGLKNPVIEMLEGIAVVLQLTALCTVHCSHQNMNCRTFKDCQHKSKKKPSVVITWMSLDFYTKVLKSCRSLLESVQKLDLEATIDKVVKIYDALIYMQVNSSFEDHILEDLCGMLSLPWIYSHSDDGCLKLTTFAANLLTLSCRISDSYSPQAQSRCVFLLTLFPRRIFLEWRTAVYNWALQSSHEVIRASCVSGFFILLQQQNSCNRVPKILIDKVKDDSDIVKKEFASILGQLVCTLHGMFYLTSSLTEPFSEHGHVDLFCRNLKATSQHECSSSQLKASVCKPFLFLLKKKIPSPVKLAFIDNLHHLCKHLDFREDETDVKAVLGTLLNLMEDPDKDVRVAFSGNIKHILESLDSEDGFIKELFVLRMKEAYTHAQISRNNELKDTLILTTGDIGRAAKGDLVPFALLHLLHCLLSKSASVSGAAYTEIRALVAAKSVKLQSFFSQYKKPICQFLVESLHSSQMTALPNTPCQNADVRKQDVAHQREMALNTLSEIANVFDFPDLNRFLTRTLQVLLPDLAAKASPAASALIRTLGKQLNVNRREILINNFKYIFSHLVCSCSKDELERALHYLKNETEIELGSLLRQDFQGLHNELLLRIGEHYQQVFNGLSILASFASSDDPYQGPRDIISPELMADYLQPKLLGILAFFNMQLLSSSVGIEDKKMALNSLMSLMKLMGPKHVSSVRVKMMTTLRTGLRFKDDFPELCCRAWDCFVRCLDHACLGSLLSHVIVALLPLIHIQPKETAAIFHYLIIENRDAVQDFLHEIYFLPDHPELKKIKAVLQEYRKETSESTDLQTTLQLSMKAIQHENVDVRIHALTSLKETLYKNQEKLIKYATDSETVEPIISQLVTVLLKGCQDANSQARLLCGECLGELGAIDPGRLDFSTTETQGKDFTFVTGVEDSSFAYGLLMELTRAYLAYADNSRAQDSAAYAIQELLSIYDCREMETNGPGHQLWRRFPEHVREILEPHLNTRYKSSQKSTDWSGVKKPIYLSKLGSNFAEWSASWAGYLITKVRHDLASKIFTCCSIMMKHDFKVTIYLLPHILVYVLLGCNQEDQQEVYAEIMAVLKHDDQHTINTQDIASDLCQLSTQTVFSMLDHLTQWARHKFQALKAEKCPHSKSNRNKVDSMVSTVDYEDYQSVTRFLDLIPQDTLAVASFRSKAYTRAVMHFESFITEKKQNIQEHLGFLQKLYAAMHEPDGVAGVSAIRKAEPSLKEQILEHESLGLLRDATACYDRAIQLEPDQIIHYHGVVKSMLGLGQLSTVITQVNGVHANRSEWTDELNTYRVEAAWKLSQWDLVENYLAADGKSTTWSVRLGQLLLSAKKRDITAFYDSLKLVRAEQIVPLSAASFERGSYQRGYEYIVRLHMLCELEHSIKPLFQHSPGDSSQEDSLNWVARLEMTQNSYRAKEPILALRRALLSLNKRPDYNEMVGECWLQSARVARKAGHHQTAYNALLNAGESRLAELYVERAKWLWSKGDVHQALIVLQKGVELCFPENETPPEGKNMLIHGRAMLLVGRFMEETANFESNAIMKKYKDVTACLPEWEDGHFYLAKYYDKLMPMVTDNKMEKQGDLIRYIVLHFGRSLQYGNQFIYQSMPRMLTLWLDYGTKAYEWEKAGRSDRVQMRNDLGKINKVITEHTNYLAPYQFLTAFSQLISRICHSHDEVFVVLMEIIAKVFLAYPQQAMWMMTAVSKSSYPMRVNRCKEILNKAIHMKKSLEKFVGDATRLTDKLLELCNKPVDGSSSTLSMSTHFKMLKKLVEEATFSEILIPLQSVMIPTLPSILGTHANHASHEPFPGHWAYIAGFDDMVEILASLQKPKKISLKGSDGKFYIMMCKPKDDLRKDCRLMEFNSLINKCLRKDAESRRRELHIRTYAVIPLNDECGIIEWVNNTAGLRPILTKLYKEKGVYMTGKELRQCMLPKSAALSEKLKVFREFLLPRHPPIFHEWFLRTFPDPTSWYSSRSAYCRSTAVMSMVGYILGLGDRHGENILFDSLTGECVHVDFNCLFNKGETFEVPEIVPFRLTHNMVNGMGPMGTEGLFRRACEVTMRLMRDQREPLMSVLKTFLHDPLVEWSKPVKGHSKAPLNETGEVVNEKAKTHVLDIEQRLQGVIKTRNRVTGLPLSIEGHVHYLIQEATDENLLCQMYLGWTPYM

With `CC(C)S(=O)(=O)c1ccc(-c2cnc3[nH]cc(-c4cccc(-c5nnn[nH]5)c4)c3n2)cc1` [Compound I-68, 2-(4-isopropylsulfonylphenyl)-7-[3-(1H-tetrazol-5-yl)phenyl]-5H-pyrrolo[2,3-b]pyrazine], the Ki was 10 to 50 nM.

Take `CC(Oc1cc(-c2c[nH]c3ncc(-c4ccc(S(=O)(=O)C(C)C)cc4)nc23)sc1C(=O)O)c1ccccc1Cl` (stereo not drawn) [Compound I-69, 3-[1-(2-chlorophenyl)ethoxy]-5-[2-(4-isopropylsulfonylphenyl)-5H-pyrrolo[2,3-b]pyrazin-7-yl]thiophene-2-carboxylic acid]: the Ki is at most 10 nM.

Regarding `CC(C)S(=O)(=O)c1ccc(-c2cnc3[nH]cc(-c4cc(O[C@H](C)c5ccccc5Cl)c(C(=O)O)s4)c3n2)cc1` [Compound I-70, 3-[(1R)-1-(2-chlorophenyl)ethoxy]-5-[2-(4-isopropylsulfonylphenyl)-5H-pyrrolo[2,3-b]pyrazin-7-yl]thiophene-2-carboxylic acid], the Ki was at most 10 nM.
